In PubChem BioAssay (NCI):
Several values for one entry are separate records, joined by “and”; a condition that tells them apart may be missing. Identical values can stand only once.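 96-well plates; 48 h exposure; 5 concentrations. Endpoints by linear interpolation between flanking doses. Not reached: highest tested concentration assigned. GI50: concentration for 50% inhibition of growth. TGI denotes the concentration required for complete inhibition of growth.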

Tests used:
Experiment in all cases: growth of human tumour cells (NCI), 48 h
[1] = tested on: UACC-62 melanoma
[2] = tested on: SK-MEL-2 melanoma
[3] = tested on: MALME-3M melanoma
[4] = tested on: M14 melanoma
[5] = tested on: MCF7 breast
[6] = tested on: RXF 393 renal
[7] = tested on: NCI-H460 lung
[8] = tested on: T-47D breast
[9] = tested on: TK-10 renal
[10] = tested on: CCRF-CEM leukemia

In the case of `CC1=C2C(=CC(C)(C)[C@@H]2O)C(=O)[C@](C)(O)C12CC2`, the TGI [1] is reported as 0.0623 µM and 0.0678 µM, the GI50 [2] is reported as 0.0196 µM and the TGI [2] is reported as 0.0525 µM and 0.0223 µM. The GI50 [3] was 0.0486 µM, the TGI [3] was 0.112 µM and 0.054 µM and the TGI [4] was 0.0537 µM and 0.0431 µM. For the same compound, the GI50 [5] was 0.00472 µM, the TGI [5] was 0.0469 µM and 0.123 µM and the TGI [6] was 0.0199 µM. The GI50 [7] was 0.00575 µM, the TGI [7] was 0.0437 µM and < 0.0311 µM and the GI50 [8] was 0.0489 µM. The TGI [8] was 0.359 µM and 0.0974 µM, the GI50 [9] was 0.0511 µM and the TGI [9] was 0.222 µM and 0.236 µM.

Compound `Cc1cc(C)c2c(n1)sc1c(N)ncnc12` has a GI50 [1] greater than 25 µM, a TGI [1] greater than 25 µM and a GI50 [2] greater than 25 µM. It also gave a TGI [2] greater than 25 µM, a GI50 [3] greater than 25 µM and a TGI [3] greater than 25 µM. It also gave a GI50 [10] greater than 25 µM, a TGI [10] greater than 25 µM and a GI50 [4] greater than 25 µM. It also gave a TGI [4] greater than 25 µM, a GI50 [5] greater than 25 µM and a TGI [5] greater than 25 µM. The GI50 [6] was 8.72 µM, the TGI [6] was greater than 25 µM and the GI50 [7] was greater than 25 µM. For the same compound, the TGI [7] was greater than 25 µM, the GI50 [8] was greater than 25 µM and the TGI [8] was greater than 25 µM. For the same compound, the GI50 [9] was 10.1 µM and the TGI [9] was greater than 25 µM.

With `CSc1ncc(Br)c(Sc2nc(N)nc3nc[nH]c23)n1` the GI50 [1] was 2.48 µM, the TGI [1] was 12.2 µM and the GI50 [2] was 1.12 µM. The TGI [2] was 7.33 µM, the GI50 [3] was 3.34 µM and the TGI [3] was 18.3 µM. For the same compound, the GI50 [10] was 2.38 µM, the TGI [10] was 9.3 µM and the GI50 [4] was 2.78 µM. The TGI [4] was greater than 100 µM, the GI50 [5] was 1.91 µM and the TGI [5] was 11.9 µM. For the same compound, the GI50 [6] was 2.97 µM, the TGI [6] was 28.5 µM and the GI50 [7] was 2.15 µM. For the same compound, the TGI [7] was 13.3 µM, the GI50 [8] was 1.95 µM and the TGI [8] was 21.2 µM. It also gave a GI50 [9] of 2.45 µM and a TGI [9] of 15.8 µM.

For `O=C(Nc1ccc(-n2ccc3c(NC(=O)c4ccccc4)ncnc32)cc1)c1cccc(C(F)(F)F)c1`, the GI50 [1] was 0.809 µM, the TGI [1] was 11.1 µM and the GI50 [2] was 1.47 µM. It also gave a TGI [2] of 13.5 µM, a GI50 [3] of 9.75 µM and a TGI [3] of 26.1 µM. It also gave a GI50 [10] of 0.346 µM, a TGI [10] of 25.2 µM and a GI50 [4] of 2.85 µM. For the same compound, the TGI [4] was 17.6 µM, the GI50 [5] was 1.39 µM and the TGI [5] was 18.5 µM. The GI50 [6] was 3.39 µM, the TGI [6] was 19.9 µM and the GI50 [7] was 0.0837 µM. It also gave a TGI [7] of 12.3 µM, a GI50 [8] of 5.82 µM and a TGI [8] of 30.6 µM. The GI50 [9] was 8.57 µM and the TGI [9] was 27.2 µM.

`C1=C/COCc2cc(ccc2OCCN2CCCC2)Nc2nccc(n2)-c2ccc(o2)COC/1` gave a GI50 [1] of 1.42 µM, a TGI [1] of 3.08 µM and a GI50 [2] of 1.46 µM. The TGI [2] was 4 µM, the GI50 [3] was 1.4 µM and the TGI [3] was 3.69 µM. The GI50 [10] was 2.06 µM, the TGI [10] was 7.2 µM and the GI50 [4] was 1.56 µM. It also gave a TGI [4] of 9.09 µM, a GI50 [5] of 0.734 µM and a TGI [5] of 3.84 µM. For the same compound, the GI50 [6] was 0.397 µM, the TGI [6] was 1.64 µM and the GI50 [7] was 1.16 µM. For the same compound, the TGI [7] was 4.5 µM, the GI50 [8] was 1.21 µM and the TGI [8] was 7.33 µM. For the same compound, the GI50 [9] was 2.42 µM and the TGI [9] was 12 µM.

For `O=C(/C=C/c1ccc(C(F)(F)F)cc1)Nc1ccc(C=C2c3ccccc3C(=O)c3ccccc32)cc1`, the GI50 [1] was 3.04 µM, the TGI [1] was 63.7 µM and the GI50 [2] was 4.11 µM. For the same compound, the TGI [2] was 30.6 µM, the GI50 [3] was 8.91 µM and the TGI [3] was greater than 100 µM. It also gave a GI50 [10] of 3.4 µM, a TGI [10] greater than 100 µM and a GI50 [4] of 3.41 µM. The TGI [4] was 18.8 µM, the GI50 [5] was 4.54 µM and the TGI [5] was greater than 100 µM. The GI50 [6] was 8.26 µM, the TGI [6] was 60.4 µM and the GI50 [7] was 5.48 µM. It also gave a TGI [7] greater than 100 µM, a GI50 [8] of 3.39 µM and a TGI [8] of 56.8 µM. It also gave a GI50 [9] of 23.6 µM and a TGI [9] greater than 100 µM.

`CCn1c(-c2cc3c([nH]c4ccccc43)c(-c3cccc(O)c3)n2)n[nH]c1=S` was tested, and the GI50 [1] was 1.95 µM, the TGI [1] was 7.35 µM and the GI50 [2] was 2.05 µM. The TGI [2] was 5.81 µM, the GI50 [3] was 2.56 µM and the TGI [3] was 11.4 µM. The GI50 [10] was 2.93 µM, the TGI [10] was 12.4 µM and the GI50 [4] was 2.57 µM. The TGI [4] was 11.6 µM, the GI50 [5] was 2.79 µM and the TGI [5] was 14 µM. For the same compound, the GI50 [6] was 2.01 µM, the TGI [6] was 6.5 µM and the GI50 [7] was 3.04 µM. It also gave a TGI [7] of 10.7 µM, a GI50 [8] of 2.36 µM and a TGI [8] of 9.12 µM. The GI50 [9] was 3.64 µM and the TGI [9] was 14.8 µM.

`[O-][N+]1(CC[N+]2([O-])CCCCC2)CCCCC1` showed a TGI [1] greater than 100 µM, a TGI [2] greater than 100 µM and a TGI [3] greater than 100 µM. It also gave a TGI [10] greater than 100 µM, a TGI [4] greater than 100 µM and a TGI [5] greater than 100 µM. It also gave a TGI [6] greater than 100 µM, a TGI [7] greater than 100 µM and a TGI [8] greater than 100 µM. The TGI [9] was greater than 100 µM.

In the case of `NS(=O)(=O)c1ccc(N=Nc2c(O)[nH]c3ccc(C(=O)NCc4ccncc4)cc23)cc1`, the GI50 [1] is reported as greater than 25 µM, the TGI [1] is reported as greater than 25 µM and the GI50 [2] is reported as greater than 25 µM. The TGI [2] was greater than 25 µM, the GI50 [3] was greater than 25 µM and the TGI [3] was greater than 25 µM. For the same compound, the GI50 [10] was greater than 25 µM, the TGI [10] was greater than 25 µM and the GI50 [4] was greater than 25 µM. The TGI [4] was greater than 25 µM, the GI50 [5] was greater than 25 µM and the TGI [5] was greater than 25 µM. For the same compound, the GI50 [6] was greater than 25 µM, the TGI [6] was greater than 25 µM and the GI50 [7] was greater than 25 µM. It also gave a TGI [7] greater than 25 µM, a GI50 [8] greater than 25 µM and a TGI [8] greater than 25 µM. The GI50 [9] was greater than 25 µM and the TGI [9] was greater than 25 µM.

Work on `NC(=O)[C@@H](CC1CC1)[C@@H](CCC(F)(F)F)C(=O)N[C@H]1N=C(c2ccccc2)c2cccc(F)c2NC1=O` yielded a GI50 [1] greater than 100 µM, a TGI [1] greater than 100 µM and a GI50 [2] greater than 100 µM. The TGI [2] was greater than 100 µM, the GI50 [3] was 15.4 µM and the TGI [3] was 32.5 µM. It also gave a GI50 [4] greater than 100 µM, a TGI [4] greater than 100 µM and a GI50 [5] of 28.3 µM. It also gave a TGI [5] greater than 100 µM, a GI50 [6] of 68 µM and a TGI [6] greater than 100 µM. For the same compound, the GI50 [7] was greater than 100 µM, the TGI [7] was greater than 100 µM and the GI50 [8] was 15.3 µM. For the same compound, the TGI [8] was 56.8 µM, the GI50 [9] was greater than 100 µM and the TGI [9] was greater than 100 µM.

Compound `C=C/C(C)=C/C[C@]1(C)[C@H](C)[C@@H](OC(=O)CCC)[C@H](O)[C@@]23C(=C[C@H](OC)C[C@@H]12)[C@@H](OC(=O)CCC)O[C@H]3OC(C)=O` has a GI50 [1] of 0.529 µM, a TGI [1] of 1.88 µM and a GI50 [2] of 0.549 µM. The TGI [2] was 2.09 µM, the GI50 [3] was 0.313 µM and the TGI [3] was 1.03 µM. For the same compound, the GI50 [10] was 0.382 µM, the TGI [10] was 1.66 µM and the GI50 [4] was 0.881 µM. For the same compound, the TGI [4] was 2.55 µM, the GI50 [5] was 1.16 µM and the TGI [5] was 2.91 µM. It also gave a GI50 [6] of 0.262 µM, a TGI [6] of 0.696 µM and a GI50 [7] of 1.74 µM. For the same compound, the TGI [7] was 3.52 µM, the GI50 [8] was 0.36 µM and the TGI [8] was 1.71 µM. It also gave a GI50 [9] of 0.181 µM and a TGI [9] of 0.411 µM.

`Cc1cc(Nc2nc(C(=O)Nc3ccccc3)nc3ccccc23)n[nH]1` gave a GI50 [2] of 3.57 µM, a TGI [2] greater than 25 µM and a GI50 [3] of 13.8 µM. It also gave a TGI [3] greater than 25 µM, a GI50 [10] of 4 µM and a TGI [10] greater than 25 µM. For the same compound, the GI50 [4] was 3.48 µM, the TGI [4] was greater than 25 µM and the GI50 [5] was 13 µM. It also gave a TGI [5] greater than 25 µM, a GI50 [6] of 3.66 µM and a TGI [6] greater than 25 µM. The GI50 [7] was 2.29 µM, the TGI [7] was greater than 25 µM and the GI50 [8] was 6.61 µM. For the same compound, the TGI [8] was greater than 25 µM, the GI50 [9] was 2.52 µM and the TGI [9] was greater than 25 µM.

`COc1cccc(CN(C)c2ccc(CO)c(Cl)c2)c1` was tested, and the GI50 [1] was 0.19 µM, the TGI [1] was 1.63 µM and the GI50 [2] was 7.78 µM. It also gave a TGI [2] of 42.5 µM, a GI50 [3] of 25.9 µM and a TGI [3] greater than 89.7 µM. It also gave a GI50 [10] of 39.3 µM, a TGI [10] greater than 100 µM and a GI50 [4] of 25.2 µM. For the same compound, the TGI [4] was greater than 100 µM, the GI50 [5] was 0.504 µM and the TGI [5] was greater than 43.7 µM. It also gave a GI50 [6] of 11.2 µM, a TGI [6] greater than 62.2 µM and a GI50 [7] of 0.97 µM. For the same compound, the TGI [7] was 21 µM, the GI50 [8] was 0.298 µM and the TGI [8] was 2.86 µM.
